Among the data in patent publication US20110301142A1, “ANTAGONISTS OF LYSOPHOSPHATIDIC ACID RECEPTORS” (priority 2008, published 2011) are IC50 values, retold here.

One experiment concerns the target T1, human LPA3 (Homo sapiens, UniProt Q9UBY5).
T1 construct: The full-length cDNA fragment for human LPA3 was obtained by PCR from the vector; expressed in transfected cells; cDNA from the Missouri S&T cDNA Resource Center
T1 sequence (Q9UBY5 1-353): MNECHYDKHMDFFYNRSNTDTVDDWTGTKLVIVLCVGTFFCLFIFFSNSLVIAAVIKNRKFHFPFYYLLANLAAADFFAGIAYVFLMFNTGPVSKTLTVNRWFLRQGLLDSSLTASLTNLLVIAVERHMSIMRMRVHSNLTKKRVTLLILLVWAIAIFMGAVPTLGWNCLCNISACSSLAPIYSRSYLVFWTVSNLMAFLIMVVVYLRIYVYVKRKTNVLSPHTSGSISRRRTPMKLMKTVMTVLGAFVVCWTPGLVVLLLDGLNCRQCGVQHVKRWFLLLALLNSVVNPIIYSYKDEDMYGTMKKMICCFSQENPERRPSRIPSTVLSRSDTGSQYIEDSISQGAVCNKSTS
In words: LPA3 calcium flux assay. The conditions noted are these: Human LPA3 expressing CHO cells, stimulated with 10 nM LPA; read-out: HLPA3 Ca Flux IC50. Type of experiment: cell-based. In outline:
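Stably transfected CHO cells, serum-starved overnight, loaded with Calcium 4 dye 1 h at 37 °C in HBSS/20 mM Hepes with 0.3% fatty-acid-free HSA. Compounds preincubated 30 min at room temperature, then cells stimulated with 10 nM LPA; intracellular Ca2+ read by fluorescence; IC50 from titration curves.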
For orientation: Calcium assays in cells follow changes in intracellular calcium, usually with a dye or a luminescent sensor.

The target of another experiment is T2, human LPA1 (Homo sapiens, UniProt Q92633).
T2 construct: the full-length cDNA for human LPA1 was obtained by PCR of the reverse transcription reaction; expressed in transfected cells
T2 sequence (Q92633 whole entry): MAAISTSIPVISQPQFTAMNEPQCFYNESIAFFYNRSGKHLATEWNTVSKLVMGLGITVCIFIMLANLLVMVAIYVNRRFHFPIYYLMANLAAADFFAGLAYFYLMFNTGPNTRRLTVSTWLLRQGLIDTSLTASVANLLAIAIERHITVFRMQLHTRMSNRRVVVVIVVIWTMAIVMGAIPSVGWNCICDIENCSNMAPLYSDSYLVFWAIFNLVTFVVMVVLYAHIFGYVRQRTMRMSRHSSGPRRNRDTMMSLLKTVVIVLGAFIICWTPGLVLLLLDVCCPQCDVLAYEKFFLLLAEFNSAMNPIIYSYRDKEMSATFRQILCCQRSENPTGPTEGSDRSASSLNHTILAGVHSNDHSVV
In words: LPA1 calcium flux assay (HLPA1 Ca Flux). Type of experiment: cell-based. The conditions noted are these: Human LPA1 expressing CHO cells, stimulated with 10 nM LPA. In a few lines:
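CHO cells stably expressing cloned human LPA1, serum-starved overnight and loaded with Calcium 4 dye, were preincubated 30 min at room temperature with compound. Cells were then challenged with 10 nM LPA and intracellular Ca2+ measured; IC50 values came from titration curves.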

The IC50 is the midpoint of a concentration-inhibition curve. In the case of `Cc1noc(-c2ccc(Sc3ccc(CC(=O)O)cc3)cc2)c1NC(=O)O[C@H](C)c1ccccc1F` [Compound 1-109, [4-(4-{4-[(R)-1-(2-Fluoro-phenyl)-ethoxycarbonylamino]-3-methyl-isoxazol-5-yl}-phenylsulfanyl)-phenyl]-acetic acid], the IC50 on human LPA3 is 1000 to 50000 nM; at human LPA1, less than 300 nM.

For the compound `Cc1noc(-c2ccc(-c3ccc(CC(=O)O)cc3)cc2)c1NC(=O)O[C@@H](C)c1ccccc1F` [Compound 1-111, (4′-{4-[(S)-1-(2-Fluoro-phenyl)-ethoxycarbonylamino]-3-methyl-isoxazol-5-yl}-biphenyl-4-yl)-acetic acid], the IC50 at human LPA3 was 1000 to 50000 nM; at human LPA1 it was less than 300 nM.

`Cc1noc(-c2ccc(-c3ccc(CC(=O)O)cc3)cc2)c1NC(=O)OC(C)c1cc(F)ccc1F` (stereo not shown) [Compound 1-119, (4′-{4-[1-(2,5-Difluoro-phenyl)-ethoxycarbonylamino]-3-methyl-isoxazol-5-yl}-biphenyl-4-yl)-acetic acid]: the IC50 at human LPA3 is 1000 to 50000 nM; on human LPA1 it was less than 300 nM.

For `Cc1ccccc1[C@@H](C)OC(=O)Nc1c(C)noc1-c1ccc(-c2ccc(CC(=O)O)cc2)cc1` [Compound 1-124], the results for the half-inhibitory concentration (IC50) at human LPA3 and at human LPA1 were 1000 to 50000 nM and less than 300 nM, respectively.

Regarding `Cc1noc(-c2ccc(-c3ccc(CC#N)cc3)cc2)c1NC(=O)O[C@H](C)c1ccccc1Cl` [Compound 2-2, [5-(4′-Cyanomethyl-biphenyl-4-yl)-3-methyl-isoxazol-4-yl]-carbamic acid (R)-1-(2-chloro-phenyl)-ethyl ester], the IC50 on human LPA3 is 1000 to 50000 nM; on human LPA1 it was less than 300 nM.

For the compound `Cc1noc(-c2ccc(-c3ccc(C(=O)O)cc3)cc2)c1NC(=O)OC(C)c1ccccc1Cl` (stereo not shown) [Compound 1-51, 4′-{4-[1-(2-Chloro-phenyl)-ethoxycarbonylamino]-3-methyl-isoxazol-5-yl}-biphenyl-4-carboxylic acid], the IC50 at human LPA3 was 1000 to 50000 nM; at human LPA1, less than 300 nM.

With `Cc1noc(-c2ccc(-c3cccc(C(=O)O)c3)cc2)c1NC(=O)OC(C)c1ccccc1Cl` (stereo not shown) [Compound 1-76, 4′-{4-[1-(2-Chloro-phenyl)-ethoxycarbonylamino]-3-methyl-isoxazol-5-yl}-biphenyl-3-carboxylic acid], the results for the IC50 on human LPA3 and at human LPA1 were 1000 to 50000 nM and less than 300 nM, respectively.

On to `Cc1noc(-c2ccc(Oc3cccc(CC(=O)O)c3)cc2)c1NC(=O)O[C@H](C)c1ccccc1Cl` [Compound 1-137, [3-(4-{4-[(R)-1-(2-Chloro-phenyl)-ethoxycarbonylamino]-3-methyl-isoxazol-5-yl}-phenoxy)-phenyl]acetic acid], for which the IC50 on human LPA3 is 1000 to 50000 nM; on human LPA1, less than 300 nM.

For the compound `Cc1noc(-c2ccc(-c3ccc(C(C)C(=O)O)cc3)cc2)c1NC(=O)O[C@H](C)c1ccccc1Cl` (stereo partly drawn) [Compound 1-92, 2-(4′-{4-[(R)-1-(2-Chloro-phenyl)-ethoxycarbonylamino]-3-methyl-isoxazol-5-yl}-biphenyl-4-yl)-propionic acid], the IC50 is 300 to 1000 nM on human LPA3 and less than 300 nM at human LPA1.

As to `Cc1noc(-c2ccc(-c3ccc(CC(=O)O)cc3)nc2)c1NC(=O)OC(C)c1ccccc1F` (stereo not shown) [Compound 1-48], the IC50 at human LPA3 was more than 50000 nM; on human LPA1 it was less than 300 nM.

On to `Cc1noc(-c2ccc(-c3ccc(CC(=O)O)cc3)cc2)c1NC(=O)OC(C)c1cccc(C(F)(F)F)c1` (stereo not shown) [Compound 1-24, (4′-{3-Methyl-4-[1-(3-trifluoromethyl-phenyl)-ethoxycarbonylamino]-isoxazol-5-yl}-biphenyl-4-yl)-acetic acid], for which the IC50 lay in the range of 1000 to 50000 nM at human LPA3 and 300 to 1000 nM at human LPA1.

For the compound `Cc1noc(-c2ccc(-c3cccc(CC(=O)O)c3)cc2)c1NC(=O)OC(C)c1ccccc1Cl` (stereo not shown) [Compound 1-59, (4′-{4-[1-(2-Chloro-phenyl)-ethoxycarbonylamino]-3-methyl-isoxazol-5-yl}-biphenyl-3-yl)-acetic acid], the IC50 on human LPA3 is 1000 to 50000 nM; at human LPA1, less than 300 nM.

`Cc1noc(-c2ccc(-c3ccc(CC(=O)O)cc3)cc2)c1NC(=O)O[C@H](C)c1cccc(O)c1` [Compound 1-144, (4′-{4-[(R)-1-(3-Hydroxy-phenyl)-ethoxycarbonylamino]-3-methyl-isoxazol-5-yl}-biphenyl-4-yl)-acetic acid]: the IC50 on human LPA3 was more than 50000 nM; on human LPA1, 1000 to 50000 nM.

`Cc1noc(-c2ccc(-c3ccc(C(C)(C)C(=O)O)cc3)cc2)c1NC(=O)O[C@H](C)c1ccccc1Cl` [Compound 1-89, 2-(4′-{4-[(R)-1-(2-Chloro-phenyl)-ethoxycarbonylamino]-3-methyl-isoxazol-5-yl}-biphenyl-4-yl)-2-methyl-propionic acid]: the IC50 was 300 to 1000 nM at human LPA3 and less than 300 nM at human LPA1.

For `Cc1noc(-c2ccc(-c3ccc(Cc4nn[nH]n4)cc3)cc2)c1NC(=O)O[C@H](C)c1ccccc1Cl` [Compound 2-5, {3-Methyl-5-[4′-(2H-tetrazol-5-ylmethyl)-biphenyl-4-yl]-isoxazol-4-yl}-carbamic acid (R)-1-(2-chloro-phenyl)-ethyl ester], the IC50 is 1000 to 50000 nM at human LPA3 and less than 300 nM on human LPA1.

As for `Cc1noc(-c2ccc(Cn3cnc(C(=O)O)n3)cc2)c1NC(=O)OC(C)c1ccccc1Cl` (stereo not shown) [Compound 1-1, 1-(4-{4-[1-(2-Chloro-phenyl)-ethoxycarbonylamino]-3-methyl-isoxazol-5-yl}-benzyl)-1H-[1,2,4]triazole-3-carboxylic acid], the IC50 on human LPA3 is 1000 to 50000 nM; on human LPA1, less than 300 nM.

For the compound `Cc1noc(-c2ccc(-c3ccc(CC(=O)O)cc3)cc2)c1NC(=O)OC(C)c1ccccc1F` (stereo not shown) [Compound 1-26, (4′-{4-[1-(2-Fluoro-phenyl)-ethoxycarbonylamino]-3-methyl-isoxazol-5-yl}-biphenyl-4-yl)-acetic acid], the figures for the IC50 on human LPA3 and on human LPA1 were 1000 to 50000 nM and less than 300 nM, respectively.

On to `Cc1noc(-c2ccc(Cc3cccc(CC(=O)O)c3)cc2)c1NC(=O)O[C@H](C)c1ccccc1F` [Compound 1-80, [3-(4-{4-[(R)-1-(2-Fluoro-phenyl)-ethoxycarbonylamino]-3-methyl-isoxazol-5-yl}-benzyl)-phenyl]acetic acid], for which the IC50 at human LPA3 was 1000 to 50000 nM; at human LPA1, less than 300 nM.

Consider `Cc1noc(-c2ccc(COc3ccc(CC(=O)O)cc3)cc2)c1NC(=O)O[C@H](C)c1ccccc1Cl` [Compound 1-103, [4-(4-{4-[(R)-1-(2-Chloro-phenyl)-ethoxycarbonylamino]-3-methyl-isoxazol-5-yl}-benzyloxy)-phenyl]-acetic acid], for which the IC50 was 1000 to 50000 nM on human LPA3 and less than 300 nM at human LPA1.

Consider `Cc1noc(-c2ccc(-c3ccc(CC(=O)O)cc3)cc2)c1NC(=O)OC(C)c1ccc(Cl)cc1Cl` (stereo not shown) [Compound 1-25, (4′-{4-[1-(2,4-Dichloro-phenyl)-ethoxycarbonylamino]-3-methyl-isoxazol-5-yl}-biphenyl-4-yl)-acetic acid], for which the IC50 on human LPA3 was 1000 to 50000 nM; at human LPA1, less than 300 nM.

Consider `Cc1noc(-c2ccc(Cc3cccc(C(=O)O)c3)cc2)c1NC(=O)OC(C)c1ccccc1Cl` (stereo not shown) [Compound 1-5, 3-(4-{4-[1-(2-Chloro-phenyl)-ethoxycarbonylamino]-3-methyl-isoxazol-5-yl}-benzyl)-benzoic acid], for which the IC50 was 1000 to 50000 nM on human LPA3 and less than 300 nM at human LPA1.

Regarding `Cc1noc(-c2ccc(Cc3ccc(CC(=O)O)cc3)cc2)c1NC(=O)O[C@H](C)c1ccccc1F` [Compound 1-81, [4-(4-{4-[(R)-1-(2-Fluoro-phenyl)-ethoxycarbonylamino]-3-methyl-isoxazol-5-yl}-benzyl)-phenyl]-acetic acid], the figures for the IC50 at human LPA3 and at human LPA1 were 1000 to 50000 nM and less than 300 nM, respectively.

For the compound `Cc1noc(-c2ccc(-c3ccc(C(O)C(=O)O)cc3)cc2)c1NC(=O)O[C@H](C)c1ccccc1F` (stereo partly drawn) [Compound 1-139, (4′-{4-[(R)-1-(2-Fluoro-phenyl)-ethoxycarbonylamino]-3-methyl-isoxazol-5-yl}-biphenyl-4-yl)-hydroxy-acetic acid], the IC50 at human LPA3 is 1000 to 50000 nM; on human LPA1 it was less than 300 nM.

Consider `COC(=O)Cc1ccc(OCc2ccc(-c3onc(C)c3NC(=O)O[C@H](C)c3ccccc3Cl)cc2)cc1` [Compound 1-102, [4-(4-{4-[(R)-1-(2-Chloro-phenyl)-ethoxycarbonylamino]-3-methyl-isoxazol-5-yl}-benzyloxy)-phenyl]-acetic acid methyl ester], for which the IC50 on human LPA3 was 1000 to 50000 nM; on human LPA1, less than 300 nM.

`Cc1noc(-c2cnc(-c3ccc(CC(=O)O)cc3)s2)c1NC(=O)O[C@H](C)c1ccccc1F` [Compound 3-4, [4-(5-{4-[(R)-1-(2-Fluoro-phenyl)-ethoxycarbonylamino]-3-methyl-isoxazol-5-yl}-thiazol-2-yl)-phenyl]-acetic acid]: the IC50 at human LPA3 was more than 50000 nM; on human LPA1, less than 300 nM.

On to `Cc1noc(-c2ccc(-c3ccc(C(C)C(=O)O)cc3)cc2)c1NC(=O)O[C@H](C)c1ccccc1F` (stereo partly drawn) [Compound 1-91, 2-(4′-{4-[(R)-1-(2-Fluoro-phenyl)-ethoxycarbonylamino]-3-methyl-isoxazol-5-yl}-biphenyl-4-yl)-propionic acid], for which the results for the IC50 at human LPA3 and at human LPA1 were 1000 to 50000 nM and less than 300 nM, respectively.
